Values after ≈ are worked out from the molar mass of the structure shown. Marks after values point to notes of the source that are not given here.
Assays:
[1] = Solubility of meloxicam in simulated gastric fluid pH 1.2; assay type: physicochemical; details: for solubility at 72 h: simulated gastric fluid, pH 1.2, simulated gastric fluid, thermodynamic from solid
Protocol: Excess of different compositions and pure meloxicam powder were transferred into test tubes.
10 ml of USP simulated gastric fluid, pH 1.2 (SGF) was added.
Samples were shaken for 72 h at room temperature.
Filtered solutions were analyzed for meloxicam.

[2] = pH 2-4; cited from earlier work
[3] = Oral bioavailability of ibuprofen crushed tablets in control and vagal-suppressed (Pain Model) rats; assay type: in vivo, Sprague-Dawley rats; details: Pain Model (vagal-suppressed, propantheline) rats, 20 mg/kg oral
Excerpt: Delayed absorption caused by vagal suppression that has previously been reported in the literature (e.g., Jamali & Axelson, 1997) was used to test the absorption rates of new meloxicam formulations.
The animal models are adult male Sprague-Dawley rats with body weight of 250-300 g, and which were cared for in accordance with the principles and guidelines of the Canadian Council of Animal Care. All rats were catheterized in the right jugular vein for sample collection.
An animal model having suppressed vagal properties were produced by administering (intraperitoneal injection) to the rats two 20 mg/kg doses of propantheline (test, n=6), an anticholinergic agent with known vagal suppressive properties, the first dose at 2 hours prior to administration of an NSAID, and the second at 1 hour prior.
The tablets were crushed gently and small pieces were administered into the stomach via a plastic tube followed by 0.5 mL tap water. Animals were fasted after the first dose of propantheline until 4 hours post-meloxicam dose. They had free access to water.

[4] = 200 mg and 600 mg doses, dental surgery; cited from earlier work

| solubility in simulated gastric fluid when loaded on Neusilin® and mixed with Gelucire® 44/14 ([1]; pH 1.2, FIG. 7) | solubility at 72 h ([1]; pH 1.2, combination of Gelucire® and Neusilin®) [µg/mL] | solubility at 72 h ([1]; pH 1.2, meloxicam alone) [µg/mL] | solubility at 72 h ([1]; pH 1.2, with Gelucire® alone) [µg/mL] | solubility at 72 h ([1]; pH 1.2, with the metal silicate alone) [µg/mL] | AUC (0-8) [3] [μg/h/mL^−1] | Cmax [3] | Tmax [3] [min] | Compound | minimum solubility in buffered aqueous systems [2] | delay in the mean time to peak concentration caused by surgery [4] |
| --- | --- | --- | --- | --- | --- | --- | --- | --- | --- | --- |
| substantially increased | 11500 | 7 (≈ 19.9 µM) | 10 (≈ 28.5 µM) | 23 to 41 (≈ 65.5 to 117 µM) | – | – | – | Cc1cnc(NC(=O)C2=C(O)c3ccccc3S(=O)(=O)N2C)s1 [meloxicam] | less than 0.5 µg/ml | – |
| – | – | – | – | – | 81.8 | 13.8* μg/mL | 45 | CC(C)Cc1ccc(C(C)C(=O)O)cc1 (racemic) [ibuprofen] | – | two |
